The target in assay [1] is T1, MERTK (Homo sapiens, UniProt Q12866).
T1 sequence (Q12866 21-999): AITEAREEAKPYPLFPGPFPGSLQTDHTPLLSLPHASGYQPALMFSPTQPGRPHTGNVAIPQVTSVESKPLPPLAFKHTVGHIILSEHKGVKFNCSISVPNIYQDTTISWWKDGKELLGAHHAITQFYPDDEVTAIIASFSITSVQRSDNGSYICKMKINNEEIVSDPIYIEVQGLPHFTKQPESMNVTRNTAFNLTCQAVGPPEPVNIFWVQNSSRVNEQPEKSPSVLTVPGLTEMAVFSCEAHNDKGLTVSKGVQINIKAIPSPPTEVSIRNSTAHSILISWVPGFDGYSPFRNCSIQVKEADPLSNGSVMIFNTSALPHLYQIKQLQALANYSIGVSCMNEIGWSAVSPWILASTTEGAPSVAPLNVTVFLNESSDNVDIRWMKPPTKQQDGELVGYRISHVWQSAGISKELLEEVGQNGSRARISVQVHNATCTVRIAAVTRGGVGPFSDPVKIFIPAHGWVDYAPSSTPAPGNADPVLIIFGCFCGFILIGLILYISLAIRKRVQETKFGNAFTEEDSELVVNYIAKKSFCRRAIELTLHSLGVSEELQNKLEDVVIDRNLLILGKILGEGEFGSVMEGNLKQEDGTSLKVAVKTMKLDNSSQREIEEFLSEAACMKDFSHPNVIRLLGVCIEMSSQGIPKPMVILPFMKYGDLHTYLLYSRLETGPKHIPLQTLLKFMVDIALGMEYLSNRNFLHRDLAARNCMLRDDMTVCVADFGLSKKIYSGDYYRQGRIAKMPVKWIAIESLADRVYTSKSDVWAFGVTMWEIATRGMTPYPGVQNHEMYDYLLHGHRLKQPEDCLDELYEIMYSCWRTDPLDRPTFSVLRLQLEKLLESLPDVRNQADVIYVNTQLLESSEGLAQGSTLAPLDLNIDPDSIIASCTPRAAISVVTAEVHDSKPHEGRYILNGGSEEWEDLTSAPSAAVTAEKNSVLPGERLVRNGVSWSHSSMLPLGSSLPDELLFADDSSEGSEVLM
Description: TR-FRET kinase activity assay, MERTK. It counts as biochemical. Particulars: for IC50: TR-FRET activity assay, ATP at Km, 60 minutes, read-out: Mer IC50; for FLT3/Mer ratio (FLT3 IC50/Mer IC50): ratio calculated as FLT3 IC50/Mer IC50. In a few lines:
(§1)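 IC50 reflects the drop in TR-FRET between Eu anti-phosphotyrosine antibody and labelled peptide after a 60-minute room-temperature reaction. Buffer was 50 mM HEPES pH 7.5 with 10 mM MgCl2, 1 mM EGTA, 0.01% Brij 35 and 1 mM DTT, with ATP at Km per enzyme and EDTA quench.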

The target of assay [2] is T2, TYRO3 (Homo sapiens, UniProt Q06418).
T2 sequence (Q06418 41-890): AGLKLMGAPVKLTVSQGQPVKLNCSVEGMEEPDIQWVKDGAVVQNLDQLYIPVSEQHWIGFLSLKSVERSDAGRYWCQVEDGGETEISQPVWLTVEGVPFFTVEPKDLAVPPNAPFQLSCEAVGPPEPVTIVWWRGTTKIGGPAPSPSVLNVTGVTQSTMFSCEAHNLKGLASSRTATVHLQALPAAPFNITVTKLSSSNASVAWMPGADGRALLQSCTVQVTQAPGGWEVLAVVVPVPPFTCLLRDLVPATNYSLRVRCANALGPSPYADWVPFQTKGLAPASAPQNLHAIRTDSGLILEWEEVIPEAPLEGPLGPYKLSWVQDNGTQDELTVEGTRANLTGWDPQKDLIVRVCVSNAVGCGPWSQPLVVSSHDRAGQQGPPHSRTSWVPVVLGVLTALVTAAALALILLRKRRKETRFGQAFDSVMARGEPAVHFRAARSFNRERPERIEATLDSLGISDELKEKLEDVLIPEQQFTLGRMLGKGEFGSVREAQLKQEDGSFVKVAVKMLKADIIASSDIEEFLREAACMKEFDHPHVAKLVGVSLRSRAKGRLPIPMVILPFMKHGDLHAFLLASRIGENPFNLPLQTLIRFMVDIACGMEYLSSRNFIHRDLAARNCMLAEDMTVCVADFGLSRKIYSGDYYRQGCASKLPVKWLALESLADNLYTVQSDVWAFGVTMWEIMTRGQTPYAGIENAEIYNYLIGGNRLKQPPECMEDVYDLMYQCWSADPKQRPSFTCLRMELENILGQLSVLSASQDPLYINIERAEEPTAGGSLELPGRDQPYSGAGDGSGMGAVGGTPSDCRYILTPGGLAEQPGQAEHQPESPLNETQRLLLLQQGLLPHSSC
Description: TR-FRET kinase activity assay, TYRO3. It counts as biochemical. Conditions: ATP at Km, 60 minutes. In a few lines: as §1
In general terms: TR-FRET usually uses a lanthanide donor and a delayed reading to cut background.

SMILES strings stand for the structures. Some results are limits rather than exact numbers.

As usually defined, the IC50 is the concentration that inhibits the measured activity by half.

As to `COC[C@H](C)Nc1ncc2c(-c3ccnc(C(F)(F)F)c3)cc([C@H]3CC[C@H](O)CC3)n2n1` [Compound 584], in assay [1], the IC50 was at most 100 nM and the “FLT3/Mer ratio (FLT3 IC50/Mer IC50)” value is reported as “+++ (“+++” represents a ratio of >100)”. The half-inhibitory concentration (IC50) in assay [2] was at most 100 nM.
As to `COC[C@H](C)Nc1ncc2c(-c3cnn(C(C)(C)C(=O)N4CCO[C@@H](C(C)(C)O)C4)c3)cc([C@H]3CC[C@H](O)CC3)n2n1` [Compound 585], the IC50 in assay [1] and in assay [2] was at most 100 nM each time. For the same molecule, the “FLT3/Mer ratio (FLT3 IC50/Mer IC50)” value in assay [1] was “+++ (“+++” represents a ratio of >100)”.
On to `COC[C@H](C)Nc1ncc2c(-c3cnn(C(C)(C)C(=O)N4CCOC(C(C)(C)O)C4)c3)cc([C@H]3CC[C@H](O)CC3)n2n1` (stereo partly drawn) [Compound 586], for which the half-inhibitory concentration (IC50) in assay [1] and in assay [2] was at most 100 nM throughout. Also, in assay [1], the “FLT3/Mer ratio (FLT3 IC50/Mer IC50)” value is “+++ (“+++” represents a ratio of >100)”.
Consider `COC[C@H](C)Nc1ncc2c(-c3cnn(C4COC4)c3)cc([C@@H]3CC[C@H](O)[C@H](C)C3)n2n1` [Compound 587], for which the IC50 in assay [1] and in assay [2] was at most 100 nM each time. For the same molecule, the “FLT3/Mer ratio (FLT3 IC50/Mer IC50)” value in assay [1] is on record as “+++ (“+++” represents a ratio of >100)”.
In the case of `COC[C@H](C)Nc1ncc2c(-c3cnn(C4COC4)c3)cc([C@@H]3CC[C@H](O)[C@@H](C)C3)n2n1` [Compound 588], in assay [1], the concentration for half-maximal inhibition (IC50) is at most 100 nM; the “FLT3/Mer ratio (FLT3 IC50/Mer IC50)” value was “++ (“++” represents a ratio of between 10 and 100)”. In addition, in assay [2], the IC50 was at most 100 nM.
`COC[C@H](C)Nc1ncc2c(-c3cnn(C4COC4)c3)cc([C@@H]3CC[C@@H](O)[C@H](C)C3)n2n1` [Compound 589]: in assay [1], the IC50 is at most 100 nM and the “FLT3/Mer ratio (FLT3 IC50/Mer IC50)” value is on record as “+++ (“+++” represents a ratio of >100)”. Further, the IC50 in assay [2] is at most 100 nM.
As for `COC[C@H](C)Nc1ncc2c(-c3cnn(C(C)(C)C(=O)N4C[C@@H](C)N[C@@H](C)C4)c3)cc([C@H]3CC[C@@H](O)CC3)n2n1` [Compound 591], in assay [1], the IC50 is at most 100 nM and the “FLT3/Mer ratio (FLT3 IC50/Mer IC50)” value is recorded as “+++ (“+++” represents a ratio of >100)”. This molecule registered a half-inhibitory concentration (IC50) in assay [2] of at most 100 nM.
Turning to `C[C@@H](COC(F)F)Nc1ncc2c(-c3cnn(C(C)(C)C(=O)N4CCN(C)CC4)c3)cc([C@H]3CC[C@H](O)CC3)n2n1` [Compound 593], in assay [1], the 50% inhibitory concentration (IC50) was at most 100 nM and the “FLT3/Mer ratio (FLT3 IC50/Mer IC50)” value is on record as “+++ (“+++” represents a ratio of >100)”. In assay [2], this molecule registered an IC50 of at most 100 nM.
As for `COC[C@H](C)Nc1ncc2c(-c3cnn(C(C)(C)C(=O)N4CCOCC4)c3)cc([C@@H]3CCc4cn[nH]c4C3)n2n1` [Compound 594], in assay [1], the half-maximal inhibitory concentration (IC50) was at most 100 nM and the “FLT3/Mer ratio (FLT3 IC50/Mer IC50)” value is reported as “+++ (“+++” represents a ratio of >100)”. The same molecule had a half-maximal inhibitory concentration (IC50) in assay [2] of at most 100 nM.

(Values after patent US11040981B2, “Pyrrolotriazine compounds and methods of inhibiting TAM kinases” (Syros Pharmaceuticals, Inc., priority 2017, dated 2021).)
